Assay results taken from PMC10570366, “Molecular mechanism of decision-making in glycosaminoglycan biosynthesis” (Nature Communications, 2023).

How the values were obtained:
Assay type in all cases: biochemical
EXT1/EXT2 = target: T1, EXT1/EXT2 (Homo sapiens, UniProt Q16394+Q93063); test: HPLC and MS of glycopeptide product; details: acceptor GlcNAc-TetraP-BETA; Mn2+; pH 7.5
T1 construct: soluble lumenal regions, FLAG-EXT1/His-EXT2 heterodimer co-expressed in Expi293F
T1 sequence (Q16394 29-746 limits assumed): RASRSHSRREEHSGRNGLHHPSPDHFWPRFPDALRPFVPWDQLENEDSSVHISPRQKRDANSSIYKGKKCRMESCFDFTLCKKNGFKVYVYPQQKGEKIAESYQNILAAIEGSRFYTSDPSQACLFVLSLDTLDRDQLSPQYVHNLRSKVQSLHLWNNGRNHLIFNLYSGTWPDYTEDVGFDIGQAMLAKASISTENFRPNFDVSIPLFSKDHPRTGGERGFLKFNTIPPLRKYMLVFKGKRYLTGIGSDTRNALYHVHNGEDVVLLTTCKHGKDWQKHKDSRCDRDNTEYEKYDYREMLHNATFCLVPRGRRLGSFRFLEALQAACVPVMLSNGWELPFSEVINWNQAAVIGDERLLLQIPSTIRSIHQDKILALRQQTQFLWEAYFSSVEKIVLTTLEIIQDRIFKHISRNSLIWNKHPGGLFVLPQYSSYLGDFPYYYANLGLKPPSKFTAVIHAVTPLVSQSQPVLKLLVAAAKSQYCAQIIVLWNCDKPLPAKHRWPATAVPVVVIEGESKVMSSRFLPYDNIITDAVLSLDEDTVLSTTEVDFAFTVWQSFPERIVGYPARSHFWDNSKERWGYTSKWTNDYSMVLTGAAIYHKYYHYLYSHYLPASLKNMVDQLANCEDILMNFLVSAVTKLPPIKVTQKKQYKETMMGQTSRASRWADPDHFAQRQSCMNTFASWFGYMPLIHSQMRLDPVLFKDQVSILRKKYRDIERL
T1 sequence (Q93063 47-718 limits assumed): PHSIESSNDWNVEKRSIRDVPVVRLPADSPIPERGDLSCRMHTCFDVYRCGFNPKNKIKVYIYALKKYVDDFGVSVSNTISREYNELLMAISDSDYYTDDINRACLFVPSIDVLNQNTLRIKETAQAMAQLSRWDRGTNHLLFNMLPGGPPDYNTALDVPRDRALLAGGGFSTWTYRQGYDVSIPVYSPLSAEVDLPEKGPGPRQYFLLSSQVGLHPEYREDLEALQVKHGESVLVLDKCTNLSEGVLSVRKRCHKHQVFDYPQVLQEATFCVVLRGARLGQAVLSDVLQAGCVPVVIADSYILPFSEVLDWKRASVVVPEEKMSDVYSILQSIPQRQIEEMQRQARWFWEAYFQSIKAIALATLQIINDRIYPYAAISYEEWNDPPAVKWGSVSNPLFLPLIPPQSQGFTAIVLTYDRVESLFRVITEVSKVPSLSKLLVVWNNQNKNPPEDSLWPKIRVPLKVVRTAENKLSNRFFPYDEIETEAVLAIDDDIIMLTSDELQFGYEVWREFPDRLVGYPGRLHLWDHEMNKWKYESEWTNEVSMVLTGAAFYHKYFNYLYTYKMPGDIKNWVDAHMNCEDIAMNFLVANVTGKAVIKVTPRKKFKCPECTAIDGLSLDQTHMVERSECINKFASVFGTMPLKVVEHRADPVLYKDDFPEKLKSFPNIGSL

B3GAT3 = target: T2, B3GAT3 (Homo sapiens, UniProt O94766); test: one-pot enzymatic synthesis, HPLC and MS; details: acceptor Gal-Gal-Xyl-BKN; 25 mM Mn2+; pH 7.5; 30 °C
T2 sequence (O94766 29-335 limits assumed): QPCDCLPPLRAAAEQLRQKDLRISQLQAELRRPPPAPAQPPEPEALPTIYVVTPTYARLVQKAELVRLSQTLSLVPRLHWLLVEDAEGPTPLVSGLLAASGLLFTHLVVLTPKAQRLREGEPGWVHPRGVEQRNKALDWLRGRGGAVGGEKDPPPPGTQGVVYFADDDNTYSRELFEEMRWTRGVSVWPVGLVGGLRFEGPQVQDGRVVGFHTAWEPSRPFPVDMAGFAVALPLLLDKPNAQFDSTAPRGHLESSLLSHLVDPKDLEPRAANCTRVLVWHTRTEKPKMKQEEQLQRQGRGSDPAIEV

MBP-CSGALNACT1 = target: T3, MBP-CSGALNACT1 (Homo sapiens, UniProt Q8TDX6); test: UDP-Glo; details: acceptor TetraP-peptides; 5 mM Mn2+; pH 7.5
T3 sequence (Q8TDX6 36-532 limits assumed): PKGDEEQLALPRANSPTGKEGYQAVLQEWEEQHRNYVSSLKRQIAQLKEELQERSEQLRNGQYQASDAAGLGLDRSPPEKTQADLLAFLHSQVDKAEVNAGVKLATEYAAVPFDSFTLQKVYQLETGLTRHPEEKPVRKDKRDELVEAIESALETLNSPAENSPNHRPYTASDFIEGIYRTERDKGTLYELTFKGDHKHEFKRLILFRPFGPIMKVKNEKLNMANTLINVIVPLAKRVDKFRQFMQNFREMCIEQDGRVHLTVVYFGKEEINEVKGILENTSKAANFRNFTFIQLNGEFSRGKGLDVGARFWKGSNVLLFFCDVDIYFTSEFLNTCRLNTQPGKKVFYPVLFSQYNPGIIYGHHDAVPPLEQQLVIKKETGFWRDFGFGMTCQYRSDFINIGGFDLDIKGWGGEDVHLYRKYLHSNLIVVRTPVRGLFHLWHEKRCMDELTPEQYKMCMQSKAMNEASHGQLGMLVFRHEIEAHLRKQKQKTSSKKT

CHSY3/CHPF = target: T4, CHSY3/CHPF (Homo sapiens, UniProt Q70JA7); test: HPLC and MS of glycopeptide product; details: acceptor TetraP-BETA; 5 mM Mn2+; pH 7.5; 30 °C
T4 construct: soluble lumenal regions, His6 tags, obligate heterodimer co-expressed in Expi293F
T4 sequence (Q70JA7 29-882 limits assumed): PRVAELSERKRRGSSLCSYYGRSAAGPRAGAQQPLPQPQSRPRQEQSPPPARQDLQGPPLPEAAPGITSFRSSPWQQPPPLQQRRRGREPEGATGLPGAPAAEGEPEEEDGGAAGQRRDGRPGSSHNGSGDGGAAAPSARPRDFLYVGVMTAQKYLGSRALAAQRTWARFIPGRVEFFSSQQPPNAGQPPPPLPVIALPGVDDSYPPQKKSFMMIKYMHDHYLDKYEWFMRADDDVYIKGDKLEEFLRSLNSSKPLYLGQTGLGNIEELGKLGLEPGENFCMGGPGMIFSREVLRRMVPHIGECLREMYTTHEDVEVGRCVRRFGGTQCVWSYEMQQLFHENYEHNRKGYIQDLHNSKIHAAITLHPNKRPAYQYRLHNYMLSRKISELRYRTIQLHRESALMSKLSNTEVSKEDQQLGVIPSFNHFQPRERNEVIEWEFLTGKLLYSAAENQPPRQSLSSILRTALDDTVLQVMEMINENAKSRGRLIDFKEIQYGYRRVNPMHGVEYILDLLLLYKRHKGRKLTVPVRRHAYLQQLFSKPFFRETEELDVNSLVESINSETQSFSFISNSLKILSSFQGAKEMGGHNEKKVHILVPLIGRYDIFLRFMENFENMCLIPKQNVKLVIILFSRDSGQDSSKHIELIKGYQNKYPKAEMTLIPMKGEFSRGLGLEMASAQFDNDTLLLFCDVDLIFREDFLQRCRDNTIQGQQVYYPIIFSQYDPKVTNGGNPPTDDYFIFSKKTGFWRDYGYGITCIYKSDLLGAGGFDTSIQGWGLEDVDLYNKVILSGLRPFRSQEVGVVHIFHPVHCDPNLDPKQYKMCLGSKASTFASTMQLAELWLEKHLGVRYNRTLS
T4 sequence (Q8IZ52 35-775 partner): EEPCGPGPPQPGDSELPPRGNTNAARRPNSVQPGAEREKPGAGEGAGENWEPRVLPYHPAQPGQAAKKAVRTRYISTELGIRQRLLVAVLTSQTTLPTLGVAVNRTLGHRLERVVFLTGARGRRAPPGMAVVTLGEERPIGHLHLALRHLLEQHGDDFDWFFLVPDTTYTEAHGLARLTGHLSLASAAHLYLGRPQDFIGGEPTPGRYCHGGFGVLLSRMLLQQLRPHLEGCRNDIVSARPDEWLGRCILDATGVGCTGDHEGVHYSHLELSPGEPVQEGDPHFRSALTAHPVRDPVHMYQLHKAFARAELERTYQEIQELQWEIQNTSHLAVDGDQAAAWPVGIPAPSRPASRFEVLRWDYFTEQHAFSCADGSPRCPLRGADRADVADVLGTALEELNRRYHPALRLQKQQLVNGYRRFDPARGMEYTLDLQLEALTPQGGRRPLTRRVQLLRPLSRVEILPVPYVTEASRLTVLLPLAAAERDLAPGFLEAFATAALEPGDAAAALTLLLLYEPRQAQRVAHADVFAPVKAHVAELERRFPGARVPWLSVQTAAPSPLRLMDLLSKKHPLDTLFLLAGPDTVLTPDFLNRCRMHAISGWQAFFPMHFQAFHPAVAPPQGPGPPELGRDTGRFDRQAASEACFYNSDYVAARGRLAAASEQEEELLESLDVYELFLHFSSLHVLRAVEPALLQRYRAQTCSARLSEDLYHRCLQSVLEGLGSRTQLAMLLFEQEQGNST

Compound | HPLC and MS of glycopeptide product (EXT1/EXT2) | one-pot enzymatic synthesis, HPLC and MS (B3GAT3) | UDP-Glo (MBP-CSGALNACT1) | HPLC and MS of glycopeptide product (CHSY3/CHPF)
O=C(O)[C@H]1O[C@H](OP(=O)(O)OP(=O)(O)OC[C@H]2O[C@@H](n3ccc(=O)[nH]c3=O)[C@H](O)[C@@H]2O)[C@H](O)[C@@H](O)[C@@H]1O [UDP-GlcA] | both enzymes are able to catalyse the addition of a sixth sugar, forming GlcA-GlcNAc-TetraP-BETA | all four GTs but without FAM20B gave the unphosphorylated linker glycopeptide, GlcA-Gal-Gal-Xyl-BKN (Tetra-BKN) | – | –
CC(=O)N[C@H]1[C@@H](OP(=O)(O)OP(=O)(O)OC[C@H]2O[C@@H](n3ccc(=O)[nH]c3=O)[C@H](O)[C@@H]2O)O[C@H](CO)[C@H](O)[C@@H]1O [UDP-GalNAc] | – | – | A similar behaviour was confirmed for CSGALNACT1 | CHSY3/CHPF was able to transfer GalNAc onto TetraP-BETA
